The record followed here is patent publication US20230131899A1, “INHIBITORS OF MICROBIALLY INDUCED AMYLOID” (Axial Therapeutics, Inc., priority 2020, published 2023).

Where two headings read alike, the source gives them in different places. Bounds are passed on as bounds.

The assay concerns CsgA gene expression (csgBAC promoter-GFP reporter) in E. coli UTI89. The experiment in a line: In vitro live cell fluorescent reporter assay of CsgA transcription (Reporter Assay). In kind it is cell-based. The note with it: Escherichia coli. The method, boiled down: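 Chromosomal single-copy csgBAC promoter–GFP reporter in E. coli UTI89, started at OD600 0.003 in YESCA broth with compound (0.14–100 μM, 1% DMSO), 20 h at 27 °C. GFP (ex 485/em 525 nm) background-subtracted and normalized to vehicle; IC50 and X[50] from curve fits. OD600 tracked growth effects.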

Where [1] appears, read: read-out: Reporter Assay Abs IC50 (μM), median Abs IC50 in the CsgA reporter assay, N/A = maximum expression reduction is <50% of control.
Setting [2] is: read-out: Reporter Assay Abs IC50, activity range, class symbol.

Regarding `O=C(O)C1CN(Cc2ccccc2)c2c(-c3cccc(C(F)(F)F)c3)c(C(F)(F)c3cccc4ccccc34)c(Br)c(=O)n21` (stereo not drawn) [Compound 155, 1-benzyl-6-bromo-7-(difluoro(naphthalen-1-yl)methyl)-5-oxo-8-(3-(trifluoromethyl)phenyl)-1,2,3,5-tetrahydroimidazo[1,2-a]pyridine-3-carboxylic acid], the IC50 runs as follows: under setting [1], 3 µM; under setting [2], 1.3 to 4.5 µM.
Turning to `CCNC(=O)c1c(Cc2cccc3ccccc23)c(-c2cccc(C(F)(F)F)c2)c2n(c1=O)C(C(=O)O)CN(C)S2(=O)=O` (stereo not drawn) [Compound 156, 7-(ethylcarbamoyl)-2-methyl-8-(naphthalen-1-ylmethyl)-6-oxo-9-(3-(trifluoromethyl)phenyl)-3,4-dihydro-2H,6H-pyrido[1,2-e][1,2,5] thiadiazine-4-carboxylic acid 1,1-dioxide], the IC50 was 9.3 µM under setting [1] and 4.6 to 10 µM under setting [2].
As for `CN1CC(C(=O)O)n2c(c(-c3cccc(C(F)(F)F)c3)c(Cc3cccc4ccccc34)c(C(=O)NC(C)(C)C)c2=O)S1(=O)=O` (stereo not drawn) [Compound 158, 7-(tert-butylcarbamoyl)-2-methyl-8-(naphthalen-1-ylmethyl)-6-oxo-9-(3-(trifluoromethyl)phenyl)-3,4-dihydro-2H,6H-pyrido[1,2-e][1,2,5]thiadiazine-4-carboxylic acid 1,1-dioxide], the IC50 was 1.7 µM under setting [1] and 1.3 to 4.5 µM under setting [2].
With `CN1CC(C(=O)O)n2c(c(-c3cccc(C(F)(F)F)c3)c(Cc3cccc4ccccc34)c(C(=O)N3CCOCC3)c2=O)S1(=O)=O` (stereo not drawn) [Compound 160, 2-methyl-7-(morpholine-4-carbonyl)-8-(naphthalen-1-ylmethyl)-6-oxo-9-(3-(trifluoromethyl)phenyl)-3,4-dihydro-2H,6H-pyrido[1,2-e][1,2,5] thiadiazine-4-carboxylic acid 1,1-dioxide], the IC50 is, setting by setting: under setting [1], 65.8 µM; under setting [2], over 10 µM.
As to `CCc1c(Cc2cccc3ccccc23)c(-c2cccc(C(F)(F)F)c2)c2n(c1=O)C(C(=O)O)CN2Cc1ccc(OC)cc1` (stereo not drawn) [Compound 161, 6-ethyl-1-(4-methoxybenzyl)-7-(naphthalen-1-ylmethyl)-5-oxo-8-(3-(trifluoromethyl)phenyl)-1,2,3,5-tetrahydroimidazo[1,2-a]pyridine-3-carboxylic acid], the IC50 was 2.1 µM under setting [1] and 1.3 to 4.5 µM under setting [2].
Take `CCCN1CC(C(=O)O)n2c1c(-c1cccc(C(F)(F)F)c1)c(Cc1cccc3ccccc13)c(Cl)c2=O` (stereo not drawn) [Compound 162, 6-chloro-7-(naphthalen-1-ylmethyl)-5-oxo-1-propyl-8-(3-(trifluoromethyl)phenyl)-1,2,3,5-tetrahydroimidazo[1,2-a]pyridine-3-carboxylic acid]: the IC50 is 1.1 µM under setting [1] and under 1.3 µM under setting [2].
In the case of `CCCCN1CC(C(=O)O)n2c1c(-c1cccc(C(F)(F)F)c1)c(Cc1cccc3ccccc13)c(Cl)c2=O` (stereo not drawn) [Compound 163, 1-butyl-6-chloro-7-(naphthalen-1-ylmethyl)-5-oxo-8-(3-(trifluoromethyl)phenyl)-1,2,3,5-tetrahydroimidazo[1,2-a]pyridine-3-carboxylic acid], the IC50 by setting is: under setting [1], 1.2 µM; under setting [2], under 1.3 µM.
For `CC(C)CN1CC(C(=O)O)n2c1c(-c1cccc(C(F)(F)F)c1)c(Cc1cccc3ccccc13)c(Cl)c2=O` (stereo not drawn) [Compound 164, 6-chloro-1-isobutyl-7-(naphthalen-1-ylmethyl)-5-oxo-8-(3-(trifluoromethyl)phenyl)-1,2,3,5-tetrahydroimidazo[1,2-a]pyridine-3-carboxylic acid], the IC50 by setting is: under setting [1], 0.9 µM; under setting [2], under 1.3 µM.
Consider `O=C(O)C1CN(CC2CCCC2)c2c(-c3cccc(C(F)(F)F)c3)c(Cc3cccc4ccccc34)c(Cl)c(=O)n21` (stereo not drawn) [Compound 167, 6-chloro-1-(cyclopentylmethyl)-7-(naphthalen-1-ylmethyl)-5-oxo-8-(3-(trifluoromethyl)phenyl)-1,2,3,5-tetrahydroimidazo[1,2-a]pyridine-3-carboxylic acid], for which the IC50 runs as follows: under setting [1], 0.6 µM; under setting [2], under 1.3 µM.
Taken in the same sequence, the figures for `N#Cc1cccc(CN2CC(C(=O)O)n3c2c(-c2cccc(C(F)(F)F)c2)c(Cc2cccc4ccccc24)c(Cl)c3=O)c1` (stereo not drawn) [Compound 168, 6-chloro-1-(3-cyanobenzyl)-7-(naphthalen-1-ylmethyl)-5-oxo-8-(3-(trifluoromethyl)phenyl)-1,2,3,5-tetrahydroimidazo[1,2-a]pyridine-3-carboxylic acid] were 1.3 µM and 1.3 to 4.5 µM.
On the same counts, the results for `O=C(O)C1CN(Cc2cccnc2)c2c(-c3cccc(C(F)(F)F)c3)c(Cc3cccc4ccccc34)c(Cl)c(=O)n21` (stereo not drawn) [Compound 169, 6-chloro-7-(naphthalen-1-ylmethyl)-5-oxo-1-(pyridin-3-ylmethyl)-8-(3-(trifluoromethyl)phenyl)-1,2,3,5-tetrahydroimidazo[1,2-a]pyridine-3-carboxylic acid] are 3.8 µM and 1.3 to 4.5 µM.
In the case of `O=C(O)C1CN(Cc2ccc(CO)cc2)c2c(-c3cccc(C(F)(F)F)c3)c(Cc3cccc4ccccc34)c(Cl)c(=O)n21` (stereo not drawn) [Compound 170, 6-chloro-1-(4-(hydroxymethyl)benzyl)-7-(naphthalen-1-ylmethyl)-5-oxo-8-(3-(trifluoromethyl)phenyl)-1,2,3,5-tetrahydroimidazo[1,2-a]pyridine-3-carboxylic acid], the IC50 is 2.2 µM under setting [1] and 1.3 to 4.5 µM under setting [2].
As to `CCCN1CC(C(=O)O)n2c(c(-c3cccc(C(F)(F)F)c3)c(Cc3cccc4ccccc34)c(C(N)=O)c2=O)S1(=O)=O` (stereo not drawn) [Compound 172, 7-carbamoyl-8-(naphthalen-1-ylmethyl)-6-oxo-2-propyl-9-(3-(trifluoromethyl)phenyl)-3,4-dihydro-2H,6H-pyrido[1,2-e][1,2,5]thiadiazine-4-carboxylic acid 1,1-dioxide], the half-maximal inhibitory concentration (IC50) was 4.2 µM under setting [1] and 1.3 to 4.5 µM under setting [2].
As to `CN(C)C(=O)c1c(Cc2cccc3ccccc23)c(-c2cccc(C(F)(F)F)c2)c2n(c1=O)C(C(=O)O)CN(C)S2(=O)=O` (stereo not drawn) [Compound 173, 7-(dimethylcarbamoyl)-2-methyl-8-(naphthalen-1-ylmethyl)-6-oxo-9-(3-(trifluoromethyl)phenyl)-3,4-dihydro-2H,6H-pyrido[1,2-e] [1,2,5] thiadiazine-4-carboxylic acid 1,1-dioxide], the IC50 was 6.7 µM under setting [1] and 4.6 to 10 µM under setting [2].
On the same counts, the results for `O=C(O)C1CN(Cc2ccncc2)c2c(-c3cccc(C(F)(F)F)c3)c(Cc3cccc4ccccc34)c(Cl)c(=O)n21` (stereo not drawn) [Compound 174, 6-chloro-7-(naphthalen-1-ylmethyl)-5-oxo-1-(pyridin-4-ylmethyl)-8-(3-(trifluoromethyl)phenyl)-1,2,3,5-tetrahydroimidazo[1,2-a]pyridine-3-carboxylic acid] are 4.4 µM and 1.3 to 4.5 µM.
`CC(C)N1CC(C(=O)O)n2c(c(-c3cccc(C(F)(F)F)c3)c(Cc3cccc4ccccc34)c(C(N)=O)c2=O)S1(=O)=O` (stereo not drawn) [Compound 175, 7-carbamoyl-2-isopropyl-8-(naphthalen-1-ylmethyl)-6-oxo-9-(3-(trifluoromethyl)phenyl)-3,4-dihydro-2H,6H-pyrido[1,2-e][1,2,5]thiadiazine-4-carboxylic acid 1,1-dioxide]: the IC50 was 1.4 µM under setting [1] and 1.3 to 4.5 µM under setting [2].
For `NC(=O)c1c(Cc2cccc3ccccc23)c(-c2cccc(C(F)(F)F)c2)c2n(c1=O)C(C(=O)O)CN(C1CCCC1)S2(=O)=O` (stereo not drawn) [Compound 176, 7-carbamoyl-2-cyclopentyl-8-(naphthalen-1-ylmethyl)-6-oxo-9-(3-(trifluoromethyl)phenyl)-3,4-dihydro-2H,6H-pyrido[1,2-e][1,2,5]thiadiazine-4-carboxylic acid 1,1-dioxide], the 50% inhibitory concentration (IC50) is, setting by setting: under setting [1], 1.3 µM; under setting [2], 1.3 to 4.5 µM.
As to `CCCCN1CC(C(=O)O)n2c(c(-c3cccc(C(F)(F)F)c3)c(Cc3cccc4ccccc34)c(C(N)=O)c2=O)S1(=O)=O` (stereo not drawn) [Compound 177, 2-butyl-7-carbamoyl-8-(naphthalen-1-ylmethyl)-6-oxo-9-(3-(trifluoromethyl)phenyl)-3,4-dihydro-2H,6H-pyrido[1,2-e][1,2,5]thiadiazine-4-carboxylic acid 1,1-dioxide], the IC50 under setting [1] came out at 1.3 µM and the half-maximal inhibitory concentration (IC50) under setting [2] was 1.3 to 4.5 µM.
Turning to `O=C(O)C1CN(CCc2ccccc2)c2c(-c3cccc(C(F)(F)F)c3)c(Cc3cccc4ccccc34)c(Cl)c(=O)n21` (stereo not drawn) [Compound 178, 6-chloro-7-(naphthalen-1-ylmethyl)-5-oxo-1-phenethyl-8-(3-(trifluoromethyl)phenyl)-1,2,3,5-tetrahydroimidazo[1,2-a]pyridine-3-carboxylic acid], the IC50 by setting is: under setting [1], 0.8 µM; under setting [2], under 1.3 µM.
For `CC(C)N1CC(C(=O)O)n2c1c(-c1cccc(C(F)(F)F)c1)c(Cc1cccc3ccccc13)c(Cl)c2=O` (stereo not drawn) [Compound 179, 6-chloro-1-isopropyl-7-(naphthalen-1-ylmethyl)-5-oxo-8-(3-(trifluoromethyl)phenyl)-1,2,3,5-tetrahydroimidazo[1,2-a]pyridine-3-carboxylic acid], the IC50 is, setting by setting: under setting [1], 1.4 µM; under setting [2], 1.3 to 4.5 µM.
On the same counts, the results for `O=C(O)C1CN(CC2CCCCC2)c2c(-c3cccc(C(F)(F)F)c3)c(Cc3cccc4ccccc34)c(Cl)c(=O)n21` (stereo not drawn) [Compound 180, 6-chloro-1-(cyclohexylmethyl)-7-(naphthalen-1-ylmethyl)-5-oxo-8-(3-(trifluoromethyl)phenyl)-1,2,3,5-tetrahydroimidazo[1,2-a]pyridine-3-carboxylic acid] are 0.5 µM and under 1.3 µM.
